Measurements from US10544138B2, “Tricyclic kinase inhibitors of MELK and methods of use” (Dana-Farber Cancer Institute, Inc., priority 2015, dated 2020).
Entries after “also recorded” stand apart in the source; their conditions may differ.

Experiments:
Aurora B = Aurora B (Homo sapiens, UniProt Q96GD4); assay: Recombinant mitotic kinase assay, Aurora B; format: biochemical; conditions: recombinant kinases
Description: (§1) […] assays were performed with recombinant protein of the indicated mitotic kinase (left) and AMPK family kinases (right) in the presence of THZ-4-63-1. […] Cells were treated with nocodazole (100 ng/ml) for 18 h or not treated (Asyn., asynchronous). Nocodazole-arrested mitotic cells (M) were isolated via shake-off. The attached cells enriched in G2 phase (G2) were harvested. A portion of the mitotic cells were washed off nocodazole and released into G1 phase after 4 hours of incubation (G1). […] In Panel D, mitotic lysates were prepared from the indicated cells, and treated with λ-phosphatase at 30° C. In Panel E, nocodazole-arrested mitotic cells were treated with increasing concentration of THZ-4-63-1 for 30 min. Cell lysates were subjected to immunoblotting.
(§2) To discover a selective MELK inhibitor, a few molecule scaffolds with the potential of binding to MELK were identified, including 2,4-disubstituted pyrimidines and benzonaphthyridinones. […] To investigate if THZ-4-63-1 confers selective inhibition on MELK, we tested its effect on other mitotic kinases. In assays using recombinant kinases, MELK kinase activity was 20-fold more sensitive to THZ-4-63-1, than that of Aurora A, Aurora B, CDK1, or PLK1 (FIG. 1B).

CDK1 = CDK1 (Homo sapiens, UniProt P06493); assay: Recombinant mitotic kinase assay, CDK1; format: biochemical; conditions: recombinant kinases
Chain of CDK1 (P06493 whole entry, species assumed): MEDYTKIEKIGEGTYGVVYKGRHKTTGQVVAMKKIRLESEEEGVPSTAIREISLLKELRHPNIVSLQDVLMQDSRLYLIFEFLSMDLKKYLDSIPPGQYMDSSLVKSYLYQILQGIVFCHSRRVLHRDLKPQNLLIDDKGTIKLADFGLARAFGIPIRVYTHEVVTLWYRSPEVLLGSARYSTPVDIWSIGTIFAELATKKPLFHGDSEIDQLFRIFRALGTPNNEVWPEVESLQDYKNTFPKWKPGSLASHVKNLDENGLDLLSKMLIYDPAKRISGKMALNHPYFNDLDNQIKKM
Chain of CDK1 (P14635 whole entry partner, species assumed): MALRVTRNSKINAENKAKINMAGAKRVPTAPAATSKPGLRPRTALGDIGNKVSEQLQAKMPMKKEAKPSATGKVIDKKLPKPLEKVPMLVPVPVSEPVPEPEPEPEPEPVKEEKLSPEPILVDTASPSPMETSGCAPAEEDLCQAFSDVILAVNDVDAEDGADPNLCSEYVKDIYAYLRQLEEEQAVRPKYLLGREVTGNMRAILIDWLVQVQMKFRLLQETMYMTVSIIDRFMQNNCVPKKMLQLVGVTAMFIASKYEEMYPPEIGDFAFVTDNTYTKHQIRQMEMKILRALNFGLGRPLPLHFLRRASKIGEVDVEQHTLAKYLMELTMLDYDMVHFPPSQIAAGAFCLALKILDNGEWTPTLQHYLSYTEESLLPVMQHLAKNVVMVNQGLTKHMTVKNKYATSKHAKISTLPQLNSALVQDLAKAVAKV
Description: as §1, §2

MELK = MELK (Homo sapiens, UniProt Q14680); assay: Electrophoretic mobility (auto-phosphorylation) of MELK in nocodazole-arrested mitotic cells, immunoblotting; format: cell-based; conditions: nocodazole-arrested mitotic cells (HeLa, MDA-MB-231), 30 min, increasing concentration
Chain of MELK (Q14680 whole entry): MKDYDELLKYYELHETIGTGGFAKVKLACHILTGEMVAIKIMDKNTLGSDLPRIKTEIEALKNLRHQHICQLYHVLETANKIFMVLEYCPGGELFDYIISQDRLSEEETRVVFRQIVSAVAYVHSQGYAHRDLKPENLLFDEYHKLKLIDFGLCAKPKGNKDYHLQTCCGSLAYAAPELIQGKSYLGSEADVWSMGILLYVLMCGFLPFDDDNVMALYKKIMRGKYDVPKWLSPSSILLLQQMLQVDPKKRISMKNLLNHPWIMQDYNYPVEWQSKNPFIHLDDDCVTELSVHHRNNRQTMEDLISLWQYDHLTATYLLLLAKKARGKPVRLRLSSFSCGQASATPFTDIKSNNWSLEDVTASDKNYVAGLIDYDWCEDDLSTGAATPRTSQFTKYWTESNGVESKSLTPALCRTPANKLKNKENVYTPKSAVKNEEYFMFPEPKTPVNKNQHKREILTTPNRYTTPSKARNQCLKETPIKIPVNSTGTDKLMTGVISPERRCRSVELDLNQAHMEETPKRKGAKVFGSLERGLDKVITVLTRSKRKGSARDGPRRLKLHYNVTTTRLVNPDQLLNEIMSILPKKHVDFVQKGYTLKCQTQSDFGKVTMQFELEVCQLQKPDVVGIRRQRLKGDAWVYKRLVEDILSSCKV
Description: as §1
(§3) Cell lysates were subjected to immunoblotting. […] The fluorescent signals of immunblotting were quantified using Image Studio Lite software (Licor Biosciences, Lincoln, Neb.). The signal of phosphorylated Aurora kinases was normalized to that of loading control (α-tubulin).
(§4) We next proceeded to test if THZ-4-63-1 inhibits MELK activity in vivo. With a lack of established kinase substrates of MELK during mitosis, we used the auto-phosphorylation of MELK as a surrogate to indicate the activity of MELK. […] We then harvested nocodazole-arrested mitotic cells, and treated cells with increasing concentrations of THZ-4-63-1.

Aurora kinases = assay: Aurora kinase phosphorylation in mitotic cells, immunoblotting; format: cell-based; conditions: 30 min
Description: as §3
Cell lysates were prepared for immunoblotting. In Panels B and C, THZ-4-63-1 inhibits H3T3 phosphorylation in HeLa (B) and U2OS (C) cells. Nocodazole arrested mitotic cells were treated with THZ-4-63-1 at the indicated doses for 30 min. […] Cell lysates were subjected to immunblotting. The signal of H3T3 phosphorylation was normalized to that of α-tubulin (right).
as §4
We exposed paclitaxel- or nocodazole-arrested mitotic cells to the individual inhibitor for 30 min in the presence of MG132, and collected lysates for examining signaling involved in chromosome alignment. […] Recent studies unravel a novel role of Aurora B in phosphorylating Haspin^7, a major factor responsible for phosphorylating Histone H3 at Thr3^14. […]

[1] = test system: Histone H3 phosphorylation at Thr3; assay: Histone H3 Thr3 phosphorylation in arrested mitotic cells, immunoblotting; format: cell-based; conditions: paclitaxel- or nocodazole-arrested mitotic cells, 30 min, with MG132
Description: Cell lysates were prepared for immunoblotting. […] HeLa cells were treated with DMSO or THZ-4-63-1 (5 μM) for 4 h followed by 1 h treatment of MG132 (10 μM). Cells were fixed and stained with anti-H3T3ph and anti-CREST. […] Cells were treated as in FIG. 2, Panel D, and additionally treated with MG132 (10 μM) for 1 h before fixation. The histogram indicates the quantification of H3S10ph signal. […] MCF-10A cells stably expressing empty vector (EV) or MELK were fixed for immunostaining. Images were captured with identical exposure time. H3T3ph intensity was quantified by the use of ImageJ. […] Recombinant MELK protein (kinase domain) was incubated with recombinant Histone H3 for 30 min at 30° C. Samples were subjected to immunoblotting using the indicated antibodies. […] Cells stably expressing GFP-MELK were fixed by formaldehyde and stained with anti-H3S10ph. […] Asynchronized (Async.) or nocodazole-arrested mitotic cells were subjected to fractionation, with sample prepared for immunoblotting. Panels H and I are images showing that MELK inhibition impairs the localization of chromosome passenger complex (CPC), indicated by the immunofluorescence detecting Survivin (G) and Aurora B (H). In addition to the presence of doxycyclin or THZ-4-63-1, cells were treated with nocodazole (0.33 μM) and MG132 (10 μM) for 3 h before fixation.
Cell lysates were prepared for immunoblotting. […]

U2OS-(H2B-GFP) cells = assay: Mitotic slippage, time-lapse imaging of U2OS-(H2B-GFP) cells; format: cell-based, human; conditions: 5 μM, 4 h exposure
Description: (§5) Mitotic cells were treated with THZ-4-63-1 at indicated concentrations for 4 h. Cells were collected for immunoblotting. Panel B contains time-lapse images of U2OS-(H2B-GFP) cells treated with THZ-4-63-1 (5 μM). […] Panel C contains blots showing proteasome-mediated degradation of Cyclin B1, Aurora B and MELK in THZ-4-63-1-induced mitotic slippage. Mitotic cells were treated as in Panel A with THZ-4-63-1 (5 μM), or MG132 (10 μM), or both for 4 h. Panel D contains a graph showing quantification of cell proliferation in the indicated breast cancer cell lines, which were treated with vehicle control or THZ-4-63-1 for one week (Top) and also contains bright-field images acquired from control cells or cells treated with THZ-4-63-1 (111 nM) (Bottom). […] Cells were treated with indicated drugs, and harvested in ten days for quantification of cell growth. The bold curve depicts the theoretic prediction of an additive action between paclitaxel and THZ-4-63-1.
Centromeric localization of CPC has been implicated in checkpoint signaling^8. […] We further found an impaired spindle checkpoint in cells with MELK knockdown (FIG. 9C).

[2] = test system: Cyclin B1, MELK, and Aurora B; assay: Spindle assembly checkpoint signaling, abundance of mitotic factors by immunoblotting; format: cell-based; conditions: nocodazole- or paclitaxel-arrested cells
Description: as §5
In Panel A, paclitaxel-arrested cells were treated with THZ-4-63-1 at indicated concentrations for 4 h. Cells were collected for immunoblotting. In Panel B, nocodazole- (top) or paclitaxel-arrested mitotic cells were treated with vehicle control or THZ-4-63-1 (5 μM) for increasing time. Cell lysates were collected for immunoblotting. […]

Chain of Aurora B (Q96GD4 whole entry): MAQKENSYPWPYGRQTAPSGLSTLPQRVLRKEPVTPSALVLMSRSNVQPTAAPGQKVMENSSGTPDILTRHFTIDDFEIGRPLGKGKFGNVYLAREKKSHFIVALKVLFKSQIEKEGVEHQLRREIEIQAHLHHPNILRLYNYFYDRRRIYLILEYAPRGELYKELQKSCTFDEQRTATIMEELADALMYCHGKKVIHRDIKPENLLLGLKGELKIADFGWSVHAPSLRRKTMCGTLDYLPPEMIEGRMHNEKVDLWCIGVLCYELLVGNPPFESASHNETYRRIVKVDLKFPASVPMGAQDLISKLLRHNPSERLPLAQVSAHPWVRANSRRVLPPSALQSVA

Question: With `CN(C)Cc1ccc(-n2c(=O)ccc3cnc4ccc(-c5cc(Cl)c(O)c(Cl)c5)cc4c32)cc1` [THZ-4-63-1] as the compound, how does the “MELK kinase activity more sensitive than that of Aurora B” value (Aurora B) read?
Answer: The value was 20 fold.

Question: And the “MELK kinase activity more sensitive than that of CDK1” value (CDK1)?
Answer: Its value is 20 fold.

Question: And the “Electrophoretic mobility of mitotic MELK” value (MELK)?
Answer: The value was “increases the electrophoretic mobility of mitotic MELK; also recorded: readily altered the mobility shift in a dose-dependent manner”.

Question: And the “Phosphorylation of Aurora kinases” value (Aurora kinases)?
Answer: The value was “lack of obvious inhibition; also recorded: did not inhibit”.

Question: And the “Histone H3 phosphorylation at Thr3” value [1]?
Answer: The value was “strong suppression”.

Question: And the “Cells undergoing mitotic slippage” value (U2OS-(H2B-GFP) cells)?
Answer: Its value is “nearly half”.

Question: And the “Protein amount of mitotic factors (Cyclin B1, MELK, Aurora B)” value [2]?
Answer: Its value is “efficiently reduced the protein amount of these mitotic factors”.
